Drawing on patent US9850247B2 (Almac Discovery Limited, priority 2013, dated 2017), this text covers microsomal CLint and IC50 for 19 compounds.

A short description of series [1]: CLint estimates using human liver microsomes (Method 4). Type of series: in vitro ADME. The note with it: pH 7.4, 1 μM compound, read-out: Mics - CLint (HLM CLint). The protocol:
Method 4: Determination of CLint Estimates Using Human liver microsomes Test compounds (final concentration=1 μM; final DMSO concentration=0.1%) were incubated in 0.1 M phosphate buffer pH 7.4 with human liver microsomes (0.5 mg of protein/mL) at 37° C. Reactions were started by addition of NADPH in 0.1 M phosphate buffer pH 7.4 (final concentration 1 mM). 40 μL aliquots were removed at 2, 5, 10, 15, 20, 30, 40 and 50 min. Reactions were quenched in 80 μL of ice-cold methanol. Samples were subsequently frozen overnight then centrifuged at 3500 rpm for 20 min at 4° C. The supernatants were removed and transferred into analytical plates and analysed by LC/MS/MS. LC/MS/MS Method: All samples were analysed on a Waters Acquity I-Class coupled to a Waters Xevo TQD mass spectrometer. A Waters BEH C18 2.1×50 mm 1.7 μm column was used and mobile phases were water and methanol containing 0.1% formic acid as modifier. Analysis was by multiple reaction monitoring and conditions were optimised for each test compound. Data Analyses: From a plot of 1n peak area against time, the gradient of the line is determined. Subsequently, half-life and intrinsic clearance are calculated using the following equations. [formula] [formula] [formula] where V=Incubation volume (μL)/number of cells Method 5: Determination of Kinetic Solubility (in PBS Buffer)

The target of a further series is T1, Wee-1 kinase (Homo sapiens, UniProt P30291).
T1 construct: purchased Invitrogen PV3817
T1 sequence (P30291 whole entry): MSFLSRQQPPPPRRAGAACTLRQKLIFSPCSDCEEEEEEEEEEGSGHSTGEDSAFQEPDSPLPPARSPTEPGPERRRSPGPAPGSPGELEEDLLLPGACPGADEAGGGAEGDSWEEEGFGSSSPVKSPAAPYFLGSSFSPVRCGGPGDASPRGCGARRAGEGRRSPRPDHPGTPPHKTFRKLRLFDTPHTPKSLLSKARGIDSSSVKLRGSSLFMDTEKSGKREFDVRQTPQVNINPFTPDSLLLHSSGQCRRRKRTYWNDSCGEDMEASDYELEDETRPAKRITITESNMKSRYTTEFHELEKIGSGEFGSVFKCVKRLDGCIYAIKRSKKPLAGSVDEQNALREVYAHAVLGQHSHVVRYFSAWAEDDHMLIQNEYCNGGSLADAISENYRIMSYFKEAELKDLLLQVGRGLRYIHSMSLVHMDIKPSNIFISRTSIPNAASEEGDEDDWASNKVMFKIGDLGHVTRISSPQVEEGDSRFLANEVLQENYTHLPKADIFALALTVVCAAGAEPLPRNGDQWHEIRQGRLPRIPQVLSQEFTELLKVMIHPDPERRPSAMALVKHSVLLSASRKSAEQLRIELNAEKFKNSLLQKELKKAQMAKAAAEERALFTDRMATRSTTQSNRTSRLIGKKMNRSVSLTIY
Put plainly: Measurement of Wee-1 kinase activity (ADP-Glo luminescent kit). Type of series: biochemical. The protocol:
Method 1: Measurement of Wee-1 Kinase Activity
In the measurement of Wee-1 activity, a commercial peptide Poly(Lys Tyr (4:1)) hydrobromide was purchased from Sigma Aldrich and used as the substrate. Activated Wee-1 kinase was purchased from Invitrogen (PV3817) and an ADP-Glo luminescent kit was purchased from Promega.
All reactions took place in […] volumes in reaction buffer containing 40 mM Tris-HCl and 20 mM magnesium chloride, supplemented with 0.1 mg/mL bovine serum albumin and 2 mM DTT. Compounds were serially diluted in buffer and 5 μL of each concentration pipetted into a white 384 well plate (Sigma Aldrich M6186). A 5 μL aliquot of the Wee-1 enzyme was added to each well and the plate centrifuged for 1 min to ensure mixing of the enzyme and inhibitor.
The plate was incubated at room temperature for 30 minutes before the addition of 2.0 μg/mL of substrate and 30 μM ATP in a 5 μL aliquot. The plate was centrifuged for one minute and incubated for 1 h at RT.
15 µL of ADP-Glo stop reagent was added to each well to quench the reaction and deplete unconverted ATP. The plate was incubated for a further 40 min in the dark at RT.
30 μL of ADP-Glo kinase detection reagent was added to each well, converting ADP to ATP, catalysing the generation of luciferin by luciferase. The plate was shaken for 1 min, and incubated in the dark for an additional hour.
Luminescence from each well was detected using the Biotek Synergy4 HD plate reader and the percentage inhibition of kinase activity calculated for each inhibitor tested. Positive (kinase only) and negative (no kinase) controls were added to each plate to ensure specific interaction of kinase and inhibitor. The IC50 concentration for each inhibitor was calculated by plotting the percentage kinase inhibition against concentration of inhibitor and the curve generated by non-linear regression fitting.

A value given as a limit tells only on which side of the number the result lay.

Take `Cc1cc(Nc2ncc3c(n2)N(C)CN(c2ccccc2Cl)C3=O)ccc1N1C[C@@H]2C[C@H]1CN2` [Example 109, 7-((4-((1S,4S)-2,5-diazabicyclo[2.2.1]heptan-2-yl)-3-methylphenyl)amino)-3-(2-chlorophenyl)-1-methyl-2,3-dihydropyrimido[4,5-d]pyrimidin-4(1H)-one]: in series [1], the microsomal CLint at 1 μM is not above 15 µL/min/mg. Further, on Wee-1 kinase, the IC50 was 0.01 to 0.1 µM.
For the compound `CNCc1cc(Nc2ncc3c(n2)N(C)CN(c2c(Cl)cccc2Cl)C3=O)ccc1-c1ccncc1` [Example 155, 3-(2,6-dichlorophenyl)-1-methyl-7-((3-((methylamino)methyl)-4-(pyridin-4-yl)phenyl)amino)-2,3-dihydropyrimido[4,5-d]pyrimidin-4(1H)-one], the microsomal CLint at 1 μM in series [1] is not above 15 µL/min/mg. Besides, at Wee-1 kinase, the IC50 fell in the range of 0.01 to 0.1 µM.
Take `CN1CN(c2c(Cl)cccc2Cl)C(=O)c2cnc(Nc3ccc(N4CC5COCC(C4)N5)cc3)nc21` [Example 64, 7-((4-(3-oxa-7,9-diazabicyclo[3.3.1]nonan-7-yl)phenyl)amino)-3-(2,6-dichlorophenyl)-1-methyl-2,3-dihydropyrimido[4,5-d]pyrimidin-4(1H)-one]: in series [1], the microsomal CLint at 1 μM was not above 15 µL/min/mg. Moreover, the IC50 at Wee-1 kinase was in the range of 0.01 to 0.1 µM.
`C[C@@H]1CN(c2ccc(Nc3ncc4c(n3)N(C)CN(c3c(Cl)cccc3Cl)C4=O)cc2)CCN1C` [Example 32, (R)-3-(2,6-dichlorophenyl)-7-((4-(3,4-dimethylpiperazin-1-yl)phenyl)amino)-1-methyl-2,3-dihydropyrimido[4,5-d]pyrimidin-4(1H)-one]: the microsomal CLint at 1 μM in series [1] is 15 to 50 µL/min/mg. For the same compound, the IC50 at Wee-1 kinase fell in the range of 0.01 to 0.1 µM.
With `CN1CN(c2c(Cl)cccc2Cl)C(=O)c2cnc(Nc3ccc(N4CCN5CCOC[C@@H]5C4)c(CO)c3)nc21` [Example 133, (S)-3-(2,6-dichlorophenyl)-7-((4-(hexahydropyrazino[2,1-c][1,4]oxazin-8(1H)-yl)-3-(hydroxymethyl)phenyl)amino)-1-methyl-2,3-dihydropyrimido[4,5-d]pyrimidin-4(1H)-one], the microsomal CLint at 1 μM in series [1] was 15 to 50 µL/min/mg. Further, the IC50 on Wee-1 kinase lay in the range of 0.01 to 0.1 µM.
Take `Cc1cc(Nc2ncc3c(n2)N(C)CN(c2c(Cl)cccc2Cl)C3=O)ccc1N1C[C@H]2C[C@@H]1CN2` [Example 118, 7-((4-((1R,4R)-2,5-diazabicyclo[2.2.1]heptan-2-yl)-3-methylphenyl)amino)-3-(2,6-dichlorophenyl)-1-methyl-2,3-dihydropyrimido[4,5-d]pyrimidin-4(1H)-one]: the microsomal CLint at 1 μM in series [1] is not above 15 µL/min/mg. For the same compound, the IC50 on Wee-1 kinase lay in the range of 0.01 to 0.1 µM.
On to `Cc1cc(Nc2ncc3c(n2)N(C)CN(c2c(Cl)cccc2Cl)C3=O)ccc1N1C[C@H]2C[C@@H]1CN2C` [Example 121, 3-(2,6-dichlorophenyl)-1-methyl-7-((3-methyl-4-((1R,4R)-5-methyl-2,5-diazabicyclo[2.2.1]heptan-2-yl)phenyl)amino)-2,3-dihydropyrimido[4,5-d]pyrimidin-4(1H)-one], for which, in series [1], the microsomal CLint at 1 μM is 15 to 50 µL/min/mg. The IC50 at Wee-1 kinase is 0.01 to 0.1 µM.
The corresponding values for `COCCN1CCN(c2ccc(Nc3ncc4c(n3)N(C)CN(c3c(Cl)cccc3Cl)C4=O)cc2)CC1` [Example 120, 3-(2,6-dichlorophenyl)-7-((4-(4-(2-methoxyethyl)piperazin-1-yl)phenyl)amino)-1-methyl-2,3-dihydropyrimido[4,5-d]pyrimidin-4(1H)-one] are 15 to 50 µL/min/mg and not below 0.1 µM.
For the compound `C[C@@H]1CN(c2ccc(Nc3ncc4c(n3)N(C)CN(c3c(Cl)cccc3Cl)C4=O)cc2OC(F)F)CCN1` [Example 132, (R)-3-(2,6-dichlorophenyl)-7-((3-(difluoromethoxy)-4-(3-methylpiperazin-1-yl)phenyl)amino)-1-methyl-2,3-dihydropyrimido[4,5-d]pyrimidin-4(1H)-one], the microsomal CLint at 1 μM in series [1] is not above 15 µL/min/mg. Moreover, on Wee-1 kinase, the IC50 is 0.01 to 0.1 µM.
As for `CN1CN(c2c(Cl)cccc2Cl)C(=O)c2cnc(Nc3ccc(C4(N)CCC4)cc3)nc21` [Example 37, 7-((4-(1-aminocyclobutyl)phenyl)amino)-3-(2,6-dichlorophenyl)-1-methyl-2,3-dihydropyrimido[4,5-d]pyrimidin-4(1H)-one], the microsomal CLint at 1 μM in series [1] is 15 to 50 µL/min/mg. On Wee-1 kinase, the concentration for half-maximal inhibition (IC50) lay in the range of 0.01 to 0.1 µM.
The corresponding values for `CC(=O)N1CCN(c2ccc(Nc3ncc4c(n3)N(C)CN(c3c(Cl)cccc3Cl)C4=O)cc2CN2CCCC2)CC1` [Example 138, 7-((4-(4-acetylpiperazin-1-yl)-3-(pyrrolidin-1-ylmethyl)phenyl)amino)-3-(2,6-dichlorophenyl)-1-methyl-2,3-dihydropyrimido[4,5-d]pyrimidin-4(1H)-one] are not above 15 µL/min/mg and not above 0.01 µM.
Consider `COc1cc(Nc2ncc3c(n2)N(C)CN(c2ccccc2Cl)C3=O)ccc1N1C[C@@H]2C[C@H]1CN2` [Example 107, 7-((4-((1S,4S)-2,5-diazabicyclo[2.2.1]heptan-2-yl)-3-methoxyphenyl)amino)-3-(2-chlorophenyl)-1-methyl-2,3-dihydropyrimido[4,5-d]pyrimidin-4(1H)-one], for which the IC50 on Wee-1 kinase fell in the range of 0.01 to 0.1 µM.
The same measure, in the same setting: the result for `C[C@@H]1CN(c2ccc(Nc3ncc4c(n3)N(C)CN(c3ccccc3Cl)C4=O)cc2F)CCN1` [Example 99, (R)-3-(2-chlorophenyl)-7-((3-fluoro-4-(3-methylpiperazin-1-yl)phenyl)amino)-1-methyl-2,3-dihydropyrimido[4,5-d]pyrimidin-4(1H)-one] reads 0.01 to 0.1 µM; that for `CN1CN(c2ccccc2Cl)C(=O)c2cnc(Nc3ccc(N4CCNC5(CC5)C4)cc3)nc21` [Example 105, 7-((4-(4,7-diazaspiro[2.5]octan-7-yl)phenyl)amino)-3-(2-chlorophenyl)-1-methyl-2,3-dihydropyrimido[4,5-d]pyrimidin-4(1H)-one], 0.01 to 0.1 µM.
Still for that read-out and setting: then `CN1CN(c2c(F)cccc2Cl)C(=O)c2cnc(Nc3ccc(N4C[C@@H]5C[C@H]4CN5)cc3)nc21` [Example 54, 7-((4-((1S,4S)-2,5-diazabicyclo[2.2.1]heptan-2-yl)phenyl)amino)-3-(2-chloro-6-fluorophenyl)-1-methyl-2,3-dihydropyrimido[4,5-d]pyrimidin-4(1H)-one], with 0.01 to 0.1 µM; and `CN1CN(c2c(F)cccc2Cl)C(=O)c2cnc(Nc3ccc(N4CCOCC4)c(CO)c3)nc21` [Example 57], with 0.01 to 0.1 µM; and `C[C@@H]1CN(c2ccc(Nc3ncc4c(n3)N(C)CN(c3ccccc3Cl)C4=O)cc2)CCN1` [Example 94, (R)-3-(2-chlorophenyl)-1-methyl-7-((4-(3-methylpiperazin-1-yl)phenyl)amino)-2,3-dihydropyrimido[4,5-d]pyrimidin-4(1H)-one], with 0.01 to 0.1 µM.
`COCc1cc(Nc2ncc3c(n2)N(C)CN(c2c(C)cccc2Cl)C3=O)ccc1N1CCN[C@H](C)C1` [Example 101, (R)-3-(2-chloro-6-methylphenyl)-7-((3-(methoxymethyl)-4-(3-methylpiperazin-1-yl)phenyl)amino)-1-methyl-2,3-dihydropyrimido[4,5-d]pyrimidin-4(1H)-one]: the IC50 on Wee-1 kinase is 0.01 to 0.1 µM.
Consider `COC[C@H]1CN(c2ccc(Nc3ncc4c(n3)N(C)CN(c3c(Cl)cccc3Cl)C4=O)cc2)CCN1C` [Example 65, (R)-3-(2,6-dichlorophenyl)-7-((4-(3-(methoxymethyl)-4-methylpiperazin-1-yl)phenyl)amino)-1-methyl-2,3-dihydropyrimido[4,5-d]pyrimidin-4(1H)-one], for which the IC50 on Wee-1 kinase is 0.01 to 0.1 µM.

As a reminder, the IC50 is the concentration that inhibits the measured activity by half.
